Results on 28 molecules are retold here after patent US5523223A, “Ketoester reductase for conversion of keto acid esters to optically active hydroxy acid esters” (priority 1992, dated 1996).

“And” between values parts separate entries of the source, which are not always exact repeats. Equal values may be shown once. “Also recorded” adds a separate entry of the source. Read-outs that look alike come from different tables or passages of the source.

For assay [1], the system named is KERed from C. parapsilosis. Kind of assay: Inhibition study of the KERed (influence of metal cations and reagents). The format is biochemical, Candida parapsilosis. An excerpt:
For the following investigation, partially purified enzyme (after Q-sepharose chromatography, 67-times enrichment) was used. […]
5-oxohexanoic acid ethyl ester
TEA-NaOH-buffer, 0.1 M; pH 7.9
The influence of various metal cations and reagents upon the enzymatic activity was investigated in tests in which the test preparation described under example 3.B was used.

Assay [2] has as its system KERed from R. erythropolis. Kind of assay: Screening of crude extract for ketoester reductase activity (photometric NAD(P)H decrease). The assay is classed as biochemical, Rhodococcus erythropolis. The conditions noted are these: 0.2 mM NADH, 8 mM ketoester, TEA-NaOH buffer pH 7, mU/mg protein. The protocol: (§1) For screening collection strains of the DSM (German Collection of Microorganisms and Cell Cultures, Braunschweig) is cultured in the DSM recommended medium, the cell mass is harvested by centrifugation and disintegrated by wet milling. A permanent deposit of Candida parapsilosis DSM 70125 has been deposited on 29 Mar. 1979 in accordance with the requirements of the Budapest Treaty. The address of the depository is as follows: German Collection of Microorganisms and Cell Cultures, DSM-Mascheroder Weg 1B, Braunschweig, Germany. The supernatant served as the enzyme source (crude extract) and was investigated for ketoester reductase activity. The test was carried out photometrically and the test mixture contained the following components.
(§2) 0.1M triethanoleamine (TEA)-NaOH-Buffer, pH 7
(§3) Limited amounts of the crude extract.
(§4) The NAD(P)H-decrease at 334nm over a period of 1 minute was followed: For activity calculation, an absorption coefficient of […] was used. […] One U (unit) corresponds to the consumption and conversion of 1 μmole of reduced coenzyme per minute.

In assay [3] the test system is KERed from Candida parapsilosis. The assay can be described thus: Kinetic characterization of the KERed. The format is biochemical. The note with it: partially purified enzyme; for Vmax: referred to 2-butanone.
The test system of assay [4] is KERed from P. acidovorans. The assay can be described thus: Screening of crude extract for ketoester reductase activity (photometric NAD(P)H decrease). The format is biochemical, Pseudomonas acidovorans. The conditions noted are these: 8 mM ketoester, TEA-NaOH buffer pH 7, mU/mg protein; for NADH dependent specific activity: 0.2 mM NADH. The protocol: as §1, §2, §3, §4

The subject of assay [5] is KERed from Y. cellobiosa. The assay is described as above. The format is biochemical, Yarrowinia cellobiosa. The conditions noted are these: 8 mM ketoester, TEA-NaOH buffer pH 7, mU/mg protein; for NADH dependent specific activity: 0.2 mM NADH; for NADPH-dependent specific activity: 0.2 mM NADPH. The protocol:
as §1, §2, §3, §4

For assay [6], the system named is KERed from C. parapsilosis. Described as above. The format is biochemical, Candida parapsilosis. The conditions noted are these: 8 mM ketoester, TEA-NaOH buffer pH 7, mU/mg protein; for NADH dependent specific activity: 0.2 mM NADH; for NADPH-dependent specific activity: 0.2 mM NADPH. The method, then:
as §1, §2, §3, §4

Setting [7] is: compound 0.1 mM, 35 mM 5-oxohexanoic acid ethyl ester, 0.2 mM NADH, pH 7.9.
The mark [8] stands for this setting: compound 1.0 mM, 35 mM 5-oxohexanoic acid ethyl ester, 0.2 mM NADH, pH 7.9.
Setting [9] is: summary statements of the inhibition study.

A word on the Km: it is the concentration of substrate that gives half-maximal velocity.

Consider `O[C@@H](CS)[C@@H](O)CS` (racemic) [1,4-Dithiothreitol], for which the “Residual Activity” value in assay [1] (setting [7]) and in assay [1] (setting [8]) was 100% throughout. Also, the “Influence on KERed activity (in words)” value in assay [1] (setting [9]) is given as “Stabilization”.
As to `c1ccc(-c2ccccn2)nc1` [2,2'-bipyridyl], the “Residual Activity” value in assay [1] (2,2'-bipyridyl 0.05 mM) worked out at 52%; in assay [1] (2,2'-bipyridyl 0.5 mM), 23%. Also, the “Influence on KERed activity (in words)” value in assay [1] (setting [9]) is “Strong inhibition”.
As to `CCOC(=O)CC(C)=O` [AEEE, acetoacetic acid ethyl ester], the “NADH dependent specific activity” value in assay [2] was 153.0 mU/mg. Further, in assay [3], the Km was 122 µM and the Vmax was 79%. Further, the “NADH dependent specific activity” value in assay [4] is on record as 49.0 mU/mg. For the same molecule, in assay [5], the “NADH dependent specific activity” value was 103.1 mU/mg and the NADPH-dependent specific activity is given as 5.0 mU/mg.
In the case of `[Ag+]` [Ag^+], the “Residual Activity” value in assay [1] (setting [7]) and in assay [1] (setting [8]) was 0% throughout. In addition, the “Influence on KERed activity (in words)” value in assay [1] (setting [9]) is given as “Rapid deactivation”.
As to `CCCC(=O)CC(=O)OCC` [BEEE, butyrylacetic acid ethy ester], the “NADH dependent specific activity” value is 3.0 mU/mg in assay [2], 11.6 mU/mg in assay [4], 20.3 mU/mg in assay [5] and 49.0 mU/mg in assay [6]. Besides, the Km in assay [3] was 1300 µM. For the same molecule, the Vmax in assay [3] stood at 5%. For the same molecule, the figures for the NADPH-dependent specific activity in assay [4] (0.2 mM NADPH) and in assay [6] were 15.6 mU/mg and 25.0 mU/mg, respectively.
For `[Ca+2]` [Ca^2+], the “Residual Activity” value was determined as 78% in assay [1] (setting [7]) and 68% in assay [1] (setting [8]).
As for `[Co+2]` [Co^2+], the entries for the “Residual Activity” value in assay [1] (setting [7]) and in assay [1] (setting [8]) were 38% and 12%, respectively. Besides, in assay [1] (setting [9]), the “Influence on KERed activity (in words)” value is given as “Rapid deactivation”.
For the molecule `[Cu+2]` [Cu^2+], the “Residual Activity” value in assay [1] (setting [7]) and in assay [1] (setting [8]) was 0% each time. Besides, the “Influence on KERed activity (in words)” value in assay [1] (setting [9]) is reported as “Rapid deactivation”.
Regarding `CCOC(=O)OC(=O)OCC` [Diethyl Pyrocarbonate], the “Residual Activity” value in assay [1] (setting [7]) and in assay [1] (setting [8]) was 100% in each case.
On to `O=C(O)CN(CCN(CC(=O)O)CC(=O)O)CC(=O)O` [EDTA], for which, in assay [1], the “Influence on KERed activity (in words)” value is on record as “practically not inhibited”; the “Residual Activity” value is 100% and 80%.
For `CCO` [Ethanol], the “Residual Activity” value in assay [1] (Ethanol 5%) is 30%. Moreover, in assay [3], the Km stood at 3400 µM and the Vmax came to 42%.
With `[Fe+3]` [Fe^3+], the “Residual Activity” value in assay [1] (setting [7]) came to 100%.
Turning to `N[C@@H](CCC(=O)N[C@@H](CS)C(=O)NCC(=O)O)C(=O)O` [Glutathione (reduced), Glutathione], the “Residual Activity” value in assay [1] (setting [7]) and in assay [1] (setting [8]) was 100% throughout.
In the case of `[Hg+2]` [Hg^2+], the “Residual Activity” value in assay [1] (setting [7]) and in assay [1] (setting [8]) was 0% throughout. The “Influence on KERed activity (in words)” value in assay [1] (setting [9]) was “Rapid deactivation”.
Turning to `NC(=O)CI` [Iodoacetamide], the “Residual Activity” value in assay [1] (setting [7]) came to 77%; in assay [1] (setting [8]) it was 17.5%. Besides, in assay [1] (setting [9]), the “Influence on KERed activity (in words)” value was “Strong inhibition”.
For the molecule `CCOC(=O)CCC(C)=O` [LSEE, levulinic acid ethyl ester], the “NADH dependent specific activity” value in assay [2] amounted to 87.1 mU/mg; in assay [4], 4.1 mU/mg; in assay [5] it was 41.1 mU/mg; in assay [6], 85.1 mU/mg. Also, the Km in assay [3] is 1730 µM. Besides, the Vmax in assay [3] is on record as 12%. The values for the NADPH-dependent specific activity in assay [5] and in assay [6] were 4.0 mU/mg and 1.3 mU/mg, respectively.
Take `CC(=O)C=O` [Methylglyoxal]: the entries for the “Residual Activity” value in assay [1] (setting [7]) and in assay [1] (setting [8]) were 100% and 34%, respectively.
In the case of `[Mg+2]` [Mg^2+], the “Residual Activity” value in assay [1] (setting [7]) worked out at 91%; in assay [1] (setting [8]) it was 82%.
As for `[Mn+2]` [Mn^2+], the “Residual Activity” value in assay [1] (setting [7]) is recorded as 84%; in assay [1] (setting [8]), 80%.
In the case of `CCN1C(=O)C=CC1=O` [N-ethylmaleimide], the “Residual Activity” value came to 70% in assay [1] (setting [7]) and 47% in assay [1] (setting [8]).
For the molecule `[Ni+2]` [Ni^2+], the “Residual Activity” value in assay [1] (setting [7]) is reported as 10%; in assay [1] (setting [8]), 0%. Besides, in assay [1] (setting [9]), the “Influence on KERed activity (in words)” value was “Rapid deactivation”.
For `[Pb+2]` [Pb^2+], the “Residual Activity” value in assay [1] (setting [7]) and in assay [1] (setting [8]) was 0% each time. Also, in assay [1] (setting [9]), the “Influence on KERed activity (in words)” value is on record as “Rapid deactivation”.
`Cl.NCCc1ccc(S(=O)(=O)F)cc1` [Pefabloc]: the “Residual Activity” value in assay [1] (setting [8]) is reported as 100%.
With `[Sn+2]` [Sn^2+], the “Residual Activity” value in assay [1] (setting [7]) turned out to be 73%; in assay [1] (setting [8]), 0%. For the same molecule, the “Influence on KERed activity (in words)” value in assay [1] (setting [9]) is “Rapid deactivation”.
As for `[Zn+2]` [Zn^2+], the “Residual Activity” value in assay [1] (setting [7]) was determined as 24%; in assay [1] (setting [8]), 0%.
`c1cnc2c(c1)ccc1cccnc12` [o-Phenanthroline]: the “Residual Activity” value in assay [1] (setting [7]) worked out at 26%. Also, in assay [1] (setting [9]), the “Influence on KERed activity (in words)” value is “relatively strongly inhibited; also recorded: Strong inhibition”.
For the molecule `O=C(O)c1cc[c]([Hg+])cc1.[OH-]` [p-Hydroxymercuribenzoate], the “Residual Activity” value in assay [1] (setting [7]) and in assay [1] (setting [8]) was 0% throughout. Besides, the “Influence on KERed activity (in words)” value in assay [1] (setting [9]) is given as “Strong inhibition”.
Turning to Triton X-100, in assay [1] (Triton X-100 0.1%), the “Residual Activity” value came to 100%.
